The pIC50 is the IC50 on a negative log10 scale, so that one unit is a factor of ten.

pIC50: −log10 of the molar value. A value given as a limit tells only on which side of the number the result lay.

The assay has as its system MCF7 cells. The experiment in a line: Anti-proliferation (viability) of MCF7 cells (Table 7, FIG. 2B). The format is cell-based. Particulars: Homo sapiens, MCF7, MCF7 cells, 3-6 days, 10-point serial dilution; read-out: GI IC50 in MCF-7.
On to `CC(=O)c1c(C)c2cnc(Nc3ccc(N4CCN(CC(=O)NC5CC6(C5)CC(Nc5nc(NC(C)C)ccc5C(=O)Nc5cc7n(n5)CCC7)C6)CC4)cn3)nc2n(C2CCCC2)c1=O` (stereo not drawn) [CPD-440, 2-((6-(2-(4-(6-((6-acetyl-8-cyclopentyl-5-methyl-7-oxo-7,8-dihydropyrido[2,3-d]pyrimidin-2-yl)amino)pyridin-3-yl)piperazin-1-yl)acetamido)spiro[3.3]heptan-2-yl)amino)-N-(5,6-dihydro-4H-pyrrolo[1,2-b]pyrazol-2-yl)-6-(isopropylamino)nicotinamide], for which the pIC50 was more than 7.30.

As to `CC(=O)c1c(C)c2cnc(Nc3ccc(N4CC5(CN(CC(=O)N6CC7(CC(Nc8nc(NC(C)C)ccc8C(=O)Nc8ccc(N(C)C)nn8)C7)C6)C5)C4)cn3)nc2n(C2CCCC2)c1=O` [CPD-423, 2-((2-(2-(6-(6-((6-acetyl-8-cyclopentyl-5-methyl-7-oxo-7,8-dihydropyrido[2,3-d]pyrimidin-2-yl)amino)pyridin-3-yl)-2,6-diazaspiro[3.3]heptan-2-yl)acetyl)-2-azaspiro[3.3]heptan-6-yl)amino)-N-(6-(dimethylamino)pyridazin-3-yl)-6-(isopropylamino)nicotinamide], the pIC50 is 7.00 to 7.30.

On to `CC(=O)c1c(C)c2cnc(Nc3ccc(N4CCN(C5(C(=O)NC6CC7(C6)CC(Nc6nc(NC(C)C)ccc6C(=O)Nc6cn(C)c(C8CC8)n6)C7)CC5)CC4)cn3)nc2n(C2CCCC2)c1=O` (stereo not drawn) [CPD-366, 2-((6-(1-(4-(6-((6-acetyl-8-cyclopentyl-5-methyl-7-oxo-7,8-dihydropyrido[2,3-d]pyrimidin-2-yl)amino)pyridin-3-yl)piperazin-1-yl)cyclopropane-1-carboxamido)spiro[3.3]heptan-2-yl)amino)-N-(2-cyclopropyl-1-methyl-1H-imidazol-4-yl)-6-(isopropylamino)nicotinamide], for which the negative-log IC50 (pIC50) was less than 7.00.

Take `CC(=O)c1c(C)c2cnc(Nc3ccc(N4CCC(N5CCC(C(=O)N6CC7(CC(Nc8nc(NC(C)C)ccc8C(=O)Nc8ccc(N(C)C)nn8)C7)C6)C5)CC4)cn3)nc2n(C2CCCC2)c1=O` (stereo not drawn) [CPD-398, 2-((2-(1-(1-(6-((6-acetyl-8-cyclopentyl-5-methyl-7-oxo-7,8-dihydropyrido[2,3-d]pyrimidin-2-yl)amino)pyridin-3-yl)piperidin-4-yl)pyrrolidine-3-carbonyl)-2-azaspiro[3.3]heptan-6-yl)amino)-N-(6-(dimethylamino)pyridazin-3-yl)-6-(isopropylamino)nicotinamide]: the pIC50 is 7.00 to 7.30.

On to `CNc1ccc(C(=O)Nc2ccc(N(C)C)nn2)c(NC2CCN(C(=O)CNC3CCN(c4ccc(Nc5ncc6c(C)c(C(C)=O)c(=O)n(C7CCCC7)c6n5)nc4)CC3)CC2)n1` [CPD-299, 2-((1-((1-(6-((6-acetyl-8-cyclopentyl-5-methyl-7-oxo-7,8-dihydropyrido[2,3-d]pyrimidin-2-yl)amino)pyridin-3-yl)piperidin-4-yl)glycyl)piperidin-4-yl)amino)-N-(6-(dimethylamino)pyridazin-3-yl)-6-(methylamino)nicotinamide], for which the pIC50 is more than 7.30.

As to `[2H]C([2H])([2H])Nc1ccc(C(=O)Nc2ccc(N(C)C)nn2)c(NC2CC23CCN(C(=O)CC(C)N2CCN(c4ccc(Nc5ncc6c(C)c(C(C)=O)c(=O)n(C7CCCC7)c6n5)nc4)CC2)CC3)n1` (stereo not drawn) [CPD-383, 2-((6-(3-(4-(6-((6-acetyl-8-cyclopentyl-5-methyl-7-oxo-7,8-dihydropyrido[2,3-d]pyrimidin-2-yl)amino)pyridin-3-yl)piperazin-1-yl)butanoyl)-6-azaspiro[2.5]octan-1-yl)amino)-N-(6-(dimethylamino)pyridazin-3-yl)-6-((methyl-d3)amino)nicotinamide], the pIC50 was less than 7.00.

Consider `CNc1ccc(C(=O)Nc2cn(C)c(C3CC3)n2)c(NC2CCC3(CC2)CC(NC(=O)CN2CCN(c4ccc(Nc5ncc6c(C)c(C(C)=O)c(=O)n(C7CCCC7)c6n5)nc4)CC2)C3)n1` (stereo not drawn) [CPD-347, 2-((2-(2-(4-(6-((6-acetyl-8-cyclopentyl-5-methyl-7-oxo-7,8-dihydropyrido[2,3-d]pyrimidin-2-yl)amino)pyridin-3-yl)piperazin-1-yl)acetamido)spiro[3.5]nonan-7-yl)amino)-N-(2-cyclopropyl-1-methyl-1H-imidazol-4-yl)-6-(methylamino)nicotinamide], for which the pIC50 was less than 7.00.

In the case of `CC(=O)c1c(C)c2cnc(Nc3ccc(N4CCC5(CC4)CC5C(=O)N4CC5(CC(Nc6nc(NC(C)C)ccc6C(=O)Nc6cc(C)n(C)n6)C5)C4)cn3)nc2n(C2CCCC2)c1=O` (stereo not drawn) [CPD-415, 2-((2-(6-(6-((6-acetyl-8-cyclopentyl-5-methyl-7-oxo-7,8-dihydropyrido[2,3-d]pyrimidin-2-yl)amino)pyridin-3-yl)-6-azaspiro[2.5]octane-1-carbonyl)-2-azaspiro[3.3]heptan-6-yl)amino)-N-(1,5-dimethyl-1H-pyrazol-3-yl)-6-(isopropylamino)nicotinamide], the pIC50 was more than 7.30.

With `CNc1ccc(C(=O)Nc2cc(C)n(C3CCC3)n2)c(NC2CC3(CC(NC(=O)CN4CCN(c5ccc(Nc6ncc7c(C)c(C(C)=O)c(=O)n(C8CCCC8)c7n6)nc5)CC4)C3)C2)n1` (stereo not drawn) [CPD-297, 2-((6-(2-(4-(6-((6-acetyl-8-cyclopentyl-5-methyl-7-oxo-7,8-dihydropyrido[2,3-d]pyrimidin-2-yl)amino)pyridin-3-yl)piperazin-1-yl)acetamido)spiro[3.3]heptan-2-yl)amino)-N-(1-cyclobutyl-5-methyl-1H-pyrazol-3-yl)-6-(methylamino)nicotinamide], the pIC50 was less than 7.00.

`CC(=O)c1c(C)c2cnc(Nc3ccc(N4CC5(CN(CC(=O)N6CCC(Nc7nc(NC(C)C)ccc7C(=O)Nc7ccc(N(C)C)nn7)C6)C5)C4)cn3)nc2n(C2CCCC2)c1=O` (stereo not drawn) [CPD-424, 2-((1-(2-(6-(6-((6-acetyl-8-cyclopentyl-5-methyl-7-oxo-7,8-dihydropyrido[2,3-d]pyrimidin-2-yl)amino)pyridin-3-yl)-2,6-diazaspiro[3.3]heptan-2-yl)acetyl)pyrrolidin-3-yl)amino)-N-(6-(dimethylamino)pyridazin-3-yl)-6-(isopropylamino)nicotinamide]: the pIC50 is less than 7.00.

With `CC(=O)c1c(C)c2cnc(Nc3ccc(N4CCN(CCC(=O)N5CC(Nc6nc(NC(C)C)ccc6C(=O)Nc6ccc(N(C)C)nn6)C5)CC4)cn3)nc2n(C2CCCC2)c1=O` [CPD-303, 2-((1-(3-(4-(6-((6-acetyl-8-cyclopentyl-5-methyl-7-oxo-7,8-dihydropyrido[2,3-d]pyrimidin-2-yl)amino)pyridin-3-yl)piperazin-1-yl)propanoyl)azetidin-3-yl)amino)-N-(6-(dimethylamino)pyridazin-3-yl)-6-(isopropylamino)nicotinamide], the pIC50 is more than 7.30.

Regarding `CC(=O)c1c(C)c2cnc(Nc3ccc(N4CCC(N(C)CC(=O)N5CC(Nc6nc(NC(C)C)ccc6C(=O)Nc6ccc(N(C)C)nn6)C5)CC4)cn3)nc2n(C2CCCC2)c1=O` [CPD-427, 2-((1-(N-(1-(6-((6-acetyl-8-cyclopentyl-5-methyl-7-oxo-7,8-dihydropyrido[2,3-d]pyrimidin-2-yl)amino)pyridin-3-yl)piperidin-4-yl)-N-methylglycyl)azetidin-3-yl)amino)-N-(6-(dimethylamino)pyridazin-3-yl)-6-(isopropylamino)nicotinamide], the pIC50 was more than 7.30.

The values above are taken from patent US20260297081A1, “COMPOUNDS AND METHODS OF TREATING CANCERS” (Cullgen Inc., priority 2023, published 2026).
